These are literature values, as cited in patent publication US10976310B2, “Ligand identification by co-fractionation” (MAX-PLANCK-GESELLSCHAFT ZUR FÖRDERUNG DER WISSENSCHAFTEN …, priority 2016, dated 2021).

In this series the target is T1, PYR1 receptor (Arabidopsis thaliana, UniProt O49686).
T1 sequence (O49686 1-191): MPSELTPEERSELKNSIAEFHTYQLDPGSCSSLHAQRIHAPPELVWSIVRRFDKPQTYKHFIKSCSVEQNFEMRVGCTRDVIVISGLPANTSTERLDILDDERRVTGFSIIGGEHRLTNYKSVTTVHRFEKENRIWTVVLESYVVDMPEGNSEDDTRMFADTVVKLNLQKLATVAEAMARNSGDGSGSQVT
Conditions: Dupeux et al. (2011); read-out: Kd of binding to PYR1; cited from earlier work.

The term Kd denotes a measure of binding affinity in units of concentration. For the molecule `CC1=CC(=O)CC(C)(C)[C@@]1(O)/C=C/C(C)=C\C(=O)O` [abscisic acid], the Kd was 97 µM.
